# What was measured:
# Avena ludoviciana = test: Post-emergence treatment, pots on a site without roof, Avena ludoviciana (Example IV, Table IV); format: in vivo; settings: for Effect (evaluation scheme), Avena ludoviciana: post-emergence, emulsion concentrate
# Procedure: (§1) The results and also the results of all following examples were evaluated 4 weeks later according to the following scheme:
# (§2) In summer a further experiment was carried through under similar conditions to compare the effect of compound 1a with that of comparative compound A. Both compounds were used in the form of an emulsion concentrate (Table IV).
# (§3) Post-emergence treatment (evaluation scheme); experiment
# (§4) in pots on a site without roof
# Lolium [1] = test: Post-emergence greenhouse pot trial, Lolium (Example I, Table I); format: in vivo; settings: greenhouse pots, 4 weeks
# Procedure: Seeds of weed grasses were sown in pots filled with loamy soil and placed in the greenhouse for germination and emergence. As soon as the plants had developed 3 or 4 leaves, they were sprayed with wettable powder formulations, suspended in water, of compounds according to the invention.
# as §1
# 4 is still considered an acceptable herbicidal effect in weeds and a satisfactory preserving effect in crop plants (cf. Bolle, Nachrichtenblatt des Deutschen Pflanzenschutzdienstes 16, 1964, pages 92-94).
# Effect on weed grasses in a post-emergence trial in pots
# in the greenhouse (Evaluation scheme)
# spring wheat = test: Post-emergence trial in two stages, pots on a site without roof, spring wheat (Example II, Table II); format: in vivo
# Procedure: as §1
# (§5) The amounts of active compound required for a 90% effect, determined by the probit method (cf. Bliss, Annals of Applied Biology, 22 1935), show very distincly the difference between the compound of the invention and the comparative compound. […] None of the compounds did any harm to the wheat.
# (§6) Post-emergence treatment in two different stages of development
# (§7) Experiments in pots on a site without roof
# (§8) stage 1: 3 to 4 leaves with beginning growth of side
# (§9) stage 2: main tillering to terminated tillering.
# Setaria = test: Pre-emergence greenhouse pot trial, Setaria (Example V, Table V); format: in vivo
# Procedure: as §1
# (§10) In a greenhouse the compounds to be tested were sprayed on the surface of the soil directly after sowing. […] Dicotyledonous crop plants (the same as used in Example I) were not damaged by the applied amounts.
# (§11) Effect on weed grasses in a pre-emergence process (evalua-
# (§12) tion scheme) experiment in pots in the greenhouse.
# Avena fatua [2] = test: Post-emergence trial in two stages, pots on a site without roof, wild oat (Example II, Table II); format: in vivo; settings: for 90% effective dose: probit method; for Effect on wild oat (evaluation), Avena fatua: post-emergence
# Procedure: as §1, §5, §6, §7, §8, §9
# Digitaria = test: Pre-emergence greenhouse pot trial, Digitaria (Example V, Table V); format: in vivo
# Procedure: as §1, §10, §11, §12
# Avena fatua [3] = test: Post emergence treatment in two stages, boxes on a site without roof, wild oat (Table III); format: in vivo; settings: 0.9 kg/hectare
# Procedure: as §1
# Effect on wild oat and sugar beet
# Post emergence treatment in two stages of development
# boxes 20 × 24 × 22 cm in size on a site without roof
# Lolium [4] = test: Pre-emergence greenhouse pot trial, Lolium (Example V, Table V); format: in vivo
# Procedure: as §1, §10, §11, §12
# Alopecurus myos. = test: Post-emergence treatment, pots on a site without roof, blackgrass (Example IV, Table IV); format: in vivo, annual black-grass (Alopecurus); settings: 0.225 kg/hectare, post-emergence, emulsion concentrate
# Procedure: as §1, §2, §3, §4
compound,measurement,setting,value
"COC(=O)C(C)Oc1ccc(Oc2ccc(Br)cc2Cl)cc1 (stereo not drawn) [Compound 1a, Methyl-4-(2'-chloro-4'-bromophenoxy)-α-phenoxy-propionate]","Effect (evaluation scheme), Avena ludoviciana",Avena ludoviciana; 0.225 kg/hectare,6 (75.0 to <85.0)
same,"Effect (evaluation scheme), Avena ludoviciana",Avena ludoviciana; 0.45 kg/hectare,5 (85.0 to <90.0)
same,"Effect (evaluation scheme), Avena ludoviciana",Avena ludoviciana; 0.9 kg/hectare,4 (90.0 to <95.0)
same,effect on Avena ludoviciana compared with comparative compound,Avena ludoviciana; in words,distinctly better effect than the comparative compound
same,"Effect on weed grasses (evaluation scheme number), Lolium",Lolium [1]; 0.15 kg/hectare,5 (85.0 to <90.0)
same,"Effect on weed grasses (evaluation scheme number), Lolium",Lolium [1]; 0.62 kg/hectare,3 (95.0 to <.97.5)
same,"Effect on weed grasses (evaluation scheme number), Lolium",Lolium [1]; 2.5 kg/hectare,2 (97.5 to <100)
same,"evaluation, spring wheat","spring wheat; stage 1, 0.112 kg/hectare",1 (0)
same,"evaluation, spring wheat","spring wheat; stage 1, 0.225 kg/hectare",1 (0)
same,"evaluation, spring wheat","spring wheat; stage 1, 0.45 kg/hectare",1 (0)
same,"evaluation, spring wheat","spring wheat; stage 1, 0.9 kg/hectare",2 (0 to 2.5)
same,"evaluation, spring wheat","spring wheat; stage 2, 0.112 kg/hectare",1 (0)
same,"evaluation, spring wheat","spring wheat; stage 2, 0.225 kg/hectare",1 (0)
same,"evaluation, spring wheat","spring wheat; stage 2, 0.45 kg/hectare",1 (0)
same,"evaluation, spring wheat","spring wheat; stage 2, 0.9 kg/hectare",2 (0 to 2.5)
same,"Effect on weed grasses (evaluation scheme), Setaria",Setaria; 0.62 kg/hectare,6 (75.0 to <85.0)
same,"Effect on weed grasses (evaluation scheme), Setaria",Setaria; 1.25 kg/hectare,4 (90.0 to <95.0)
same,dosage sufficient with respect to the comparative compound (90% effect),Avena fatua [2]; applied in the second stage,about half the dosage
same,effect on wild oat compared with compound A,"Avena fatua [2]; emulsion concentrate of 36% strength, in words",better effect on wild oat than compound A
same,90% effective dose,Avena fatua [2]; stage 1 (3 to 4 leaves with beginning growth of side),0.34 kg per hectare
same,"Effect on wild oat (evaluation), Avena fatua","Avena fatua [2]; stage 1, 0.112 kg/hectare",6 (75.0 to <85.0)
same,"Effect on wild oat (evaluation), Avena fatua","Avena fatua [2]; stage 1, 0.225 kg/hectare",5 (85.0 to <90.0)
same,"Effect on wild oat (evaluation), Avena fatua","Avena fatua [2]; stage 1, 0.45 kg/hectare",4 (90.0 to <95.0)
same,"Effect on wild oat (evaluation), Avena fatua","Avena fatua [2]; stage 1, 0.9 kg/hectare",3 (95.0 to <.97.5)
same,90% effective dose,Avena fatua [2]; stage 2 (main tillering to terminated tillering),0.45 kg per hectare
same,"Effect on wild oat (evaluation), Avena fatua","Avena fatua [2]; stage 2, 0.112 kg/hectare",7 (65.0 to <75.0)
same,"Effect on wild oat (evaluation), Avena fatua","Avena fatua [2]; stage 2, 0.225 kg/hectare",6 (75.0 to <85.0)
same,"Effect on wild oat (evaluation), Avena fatua","Avena fatua [2]; stage 2, 0.45 kg/hectare",4 (90.0 to <95.0)
same,"Effect on wild oat (evaluation), Avena fatua","Avena fatua [2]; stage 2, 0.9 kg/hectare",3 (95.0 to <.97.5)
same,"Effect on weed grasses (evaluation scheme), Digitaria",Digitaria; 0.62 kg/hectare,4 (90.0 to <95.0)
same,"Effect on weed grasses (evaluation scheme), Digitaria",Digitaria; 1.25 kg/hectare,2 (97.5 to <100)
same,"Effect on wild oat, Avena fatua, number",Avena fatua [3]; 3-leaf stage,1 (100)
same,"degree of damage % (evaluation by weight), Avena fatua",Avena fatua [3]; 3-leaf stage,100%
same,"Effect on wild oat, Avena fatua, number",Avena fatua [3]; start of tillering,3 to 4
same,"degree of damage % (evaluation by weight), Avena fatua",Avena fatua [3]; start of tillering,96%
same,"Effect on weed grasses (evaluation scheme), Lolium",Lolium [4]; 0.62 kg/hectare,6 (75.0 to <85.0)
same,"Effect on weed grasses (evaluation scheme), Lolium",Lolium [4]; 1.25 kg/hectare,3 (95.0 to <.97.5)
same,"Effect (evaluation scheme), Alopecurus myos.",Alopecurus myos.,5 (85.0 to <90.0)

# — US4370489A, “Herbicidal compounds” (Hoechst Aktiengesellschaft, priority 1976, dated 1983)
